Results as given in patent US20250134890A1, “ANTIMALARIAL HEXAHYDROPYRIMIDINE ANALOGUES” (UCB BIOPHARMA SRL, priority 2022, published 2025).
Where a name gives a salt, the structure may show the parent alone.

Each compound was assayed on Plasmodium falciparum: 3D7 strain (assay: P. falciparum 3D7 asexual blood stage assay (SYBR green readout)). Conditions: Plasmodium falciparum, 3D7, Erythrocyte, 72 h, P. falciparum 3D7 in human erythrocytes, 72 h incubation, SYBR green fluorescence.
Assay type: cell-based
In short: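 3D7-infected erythrocytes (5% haematocrit, 0.5% parasitaemia) were exposed 72 h at 37 °C under 1% O2/3% CO2 to a 20-point titration (50,000-15 nM final, 0.5% DMSO). Parasite DNA was read by SYBR green fluorescence after overnight lysis. Percent inhibition was set against mefloquine and DMSO, and EC50 came from a biphasic two-site fit.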

SMILES | IC50
C[C@H]1C[C@@H](N2C(=N)N[C@](C)(c3cccc(-c4cn(Cc5ccccc5)nn4)c3Cl)CC2=O)CCO1 [Example 124, (6S)-6-[3-(1-Benzyl-1,2,3-triazol-4-yl)-2-chlorophenyl]-2-imino-6-methyl-3-[(2S,4S)-2-methyl-tetrahydropyran-4-yl]hexahydro-pyrimidin-4-one trifluoroacetic acid salt] | 216 nM
CC(n1cc(-c2cccc([C@]3(C)CC(=O)N([C@H]4CCO[C@@H](C)C4)C(=N)N3)c2Cl)nn1)C12CC(CO1)C2 (stereo partly drawn) [Example 125, (6S)-6-(2-Chloro-3-{1-[1-(2-oxa-bicyclo[2.1.1]hexan-1-yl)ethyl]-1,2,3-triazol-4-yl}phenyl)-2-imino-6-methyl-3-[(2S,4S)-2-methyl-tetrahydropyran-4-yl]hexahydro-pyrimidin-4-one trifluoroacetic acid salt] | 220 nM
C[C@H]1C[C@@H](N2C(=N)N[C@](C)(c3cccc(-c4cn(-c5ccccc5)nn4)c3Cl)CC2=O)CCO1 [Example 126, (6S)-6-[2-Chloro-3-(1-phenyl-1,2,3-triazol-4-yl)phenyl]-2-imino-6-methyl-3-[(2S,4S)-2-methyl-tetrahydropyran-4-yl]hexahydro-pyrimidin-4-one trifluoroacetic acid salt] | 5 nM
CCCCn1cc(-c2cccc([C@]3(C)CC(=O)N([C@H]4CCO[C@@H](C)C4)C(=N)N3)c2Cl)nn1 [Example 127, (6S)-6-[3-(1-Butyl-1,2,3-triazol-4-yl)-2-chlorophenyl]-2-imino-6-methyl-3-[(2S,4S)-2-methyl-tetrahydropyran-4-yl]hexahydro-pyrimidin-4-one trifluoroacetic acid salt] | 100 nM
C[C@H](c1cccnc1)n1cc(-c2cccc([C@]3(C)CC(=O)N([C@H]4CCO[C@@H](C)C4)C(=N)N3)c2Cl)nn1 [Example 128, (6S)-6-(2-Chloro-3-{1-[(1R)-1-(pyridin-3-yl)ethyl]-1,2,3-triazol-4-yl}phenyl)-2-imino-6-methyl-3-[(2S,4S)-2-methyltetrahydropyran-4-yl]hexahydropyrimidin-4-one trifluoroacetic acid salt] | 112 nM
C[C@H]1C[C@@H](N2C(=N)N[C@](C)(c3cccc(-c4cn(C5CCCNCC5)nn4)c3Cl)CC2=O)CCO1 (stereo partly drawn) [Example 129, (6S)-6-{3-[1-(Azepan-4-yl)-1,2,3-triazol-4-yl]-2-chlorophenyl}-2-imino-6-methyl-3-[(2S,4S)-2-methyltetrahydropyran-4-yl]-hexahydropyrimidin-4-one trifluoroacetic acid salt] | 11900 nM
